Experimental data published in the NIST ThermoML archive (doi:10.1016/j.jct.2005.03.012).

Test: excess molar enthalpy (molar enthalpy of mixing); xn = mol fraction of the nth substance listed
Conditions: Liquid

CO [methanol] + O
excess molar enthalpy [kcal/mol]
Conditions	8500 kPa	10000 kPa
505.01 K, x1 = 0.2	–	0.0844
505.63 K, x1 = 0.6	–	0.0984
505.93 K, x1 = 0.3	0.0752	–
506.02 K, x1 = 0.2	0.0617	–
506.29 K, x1 = 0.4	0.0736	–
506.52 K, x1 = 0.2	–	0.0828
506.53 K, x1 = 0.4	–	0.108
506.59 K, x1 = 0.1	0.0371	–
506.7 K, x1 = 0.5	0.0603	–
507.3 K, x1 = 0.6	0.0391	–
507.4 K, x1 = 0.8	–	0.0512
507.5 K, x1 = 0.6	–	0.093
507.82 K, x1 = 0.7	0.0164	–
507.86 K, x1 = 0.1	0.0344	–
508.01 K, x1 = 0.2	0.0531	–
508.15 K, x1 = 0.1	0.0342	–
508.15 K, x1 = 0.2	0.0525	0.0818
508.15 K, x1 = 0.3	0.0606	–
508.15 K, x1 = 0.4	0.0578	0.103
508.15 K, x1 = 0.5	0.0455	–
508.15 K, x1 = 0.6	0.0288	0.0886
508.15 K, x1 = 0.7	0.012	–
508.15 K, x1 = 0.8	-0.00588	0.0489
508.15 K, x1 = 0.9	-0.0143	–
508.29 K, x1 = 0.8	-0.00834	–
508.45 K, x1 = 0.9	-0.0172	–
508.63 K, x1 = 0.8	–	0.0472
508.68 K, x1 = 0.4	0.0514	–
509.15 K, x1 = 0.3	0.0516	–
509.29 K, x1 = 0.5	0.03	–
509.71 K, x1 = 0.2	–	0.0786
509.71 K, x1 = 0.6	–	0.0815
509.71 K, x1 = 0.8	–	0.0423
509.91 K, x1 = 0.1	0.0298	–
509.91 K, x1 = 0.2	0.0434	–
509.91 K, x1 = 0.3	0.0466	–
509.91 K, x1 = 0.4	0.0384	–
509.91 K, x1 = 0.5	0.0221	–
509.91 K, x1 = 0.6	0.00275	–
509.91 K, x1 = 0.7	-0.0163	–
509.91 K, x1 = 0.8	-0.0325	–
509.91 K, x1 = 0.9	-0.037	–
510.17 K, x1 = 0.7	-0.0212	–
510.19 K, x1 = 0.3	–	0.0908
510.22 K, x1 = 0.6	0.00151	–
510.22 K, x1 = 0.8	-0.0352	–
510.43 K, x1 = 0.4	–	0.0943
510.63 K, x1 = 0.2	–	0.0733
